Drawing on patent US20260007681A1, “INDOLE DERIVATIVES AS ESTROGEN RECEPTOR DEGRADERS” (REGENTS OF THE UNIVERSITY OF MICHIGAN, priority 2022, published 2026), this text covers DC50 and IC50 for 14 compounds.

SMILES strings stand for the structures. Like-named read-outs stand apart in the source and are kept apart here. Some results are limits rather than exact numbers.

The target of experiment [1] is ER (Homo sapiens (Human), UniProt P03372). Kind of experiment: In-cell western blot analysis of relative ER percentage (Compounds B1-B278). Particulars: ER degradation, 16 hours, read-out: ICW DC50. The experiment is classed as cell-based. In outline:
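Cells seeded at 40,000 or 10,000 cells/well and treated with compound (final 0.5% DMSO) for 16 h, then formaldehyde-fixed, Triton-permeabilized and co-stained for ER and GAPDH with 680/800 secondaries; LI-COR plate read. ER level expressed relative to untreated/DMSO-treated wells set at 100%.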

Experiment [2] is described as follows: Cell growth assay (WST-8) (Compounds B1-B278). The conditions noted are these: T47D cell line, WST-8, 4 days, read-out: Cell Growth Inhibition in T47D cell line IC50. The experiment is classed as cell-based. In outline:
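Cells seeded at 1500/well overnight, treated one day later with compound doses for 4 days, then 10% WST-8 added for 2.5 h at 37° C in CO2. Absorbance at 450 nm, expressed relative to vehicle control over three independent repeats.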
A general note: Tetrazolium dyes change colour on reduction, which living cells bring about.

Chain of ER (P03372 whole entry): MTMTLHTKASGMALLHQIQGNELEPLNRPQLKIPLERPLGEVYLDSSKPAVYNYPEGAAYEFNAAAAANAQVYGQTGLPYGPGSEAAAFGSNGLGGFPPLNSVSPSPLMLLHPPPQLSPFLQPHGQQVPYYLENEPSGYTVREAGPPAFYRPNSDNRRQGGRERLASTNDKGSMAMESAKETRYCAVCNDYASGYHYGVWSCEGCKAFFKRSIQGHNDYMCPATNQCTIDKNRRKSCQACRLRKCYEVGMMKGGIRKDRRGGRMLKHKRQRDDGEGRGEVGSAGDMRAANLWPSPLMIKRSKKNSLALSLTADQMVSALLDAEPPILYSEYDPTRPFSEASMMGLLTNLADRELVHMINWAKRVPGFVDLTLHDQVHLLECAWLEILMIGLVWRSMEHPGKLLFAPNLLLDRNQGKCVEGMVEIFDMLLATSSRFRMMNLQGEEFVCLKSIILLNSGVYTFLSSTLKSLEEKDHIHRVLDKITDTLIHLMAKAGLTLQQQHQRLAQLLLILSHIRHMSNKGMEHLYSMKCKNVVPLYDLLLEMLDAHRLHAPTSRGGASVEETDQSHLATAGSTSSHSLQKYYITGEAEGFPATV

In general, DC50 refers to the concentration at which degradation of the target reaches its halfway point. Broadly, the IC50 is the midpoint of a concentration-inhibition curve. With `C[C@@H]1Cc2c([nH]c3ccccc23)[C@@H](c2cnc(N3CCC4(CCC(CN5CCN6c7cc8c(cc7OC[C@@H]6C5)C(=O)N(C5CCC(=O)NC5=O)C8)CC4)CC3)nc2)N1CC(C)(C)F` (stereo partly drawn) [Compound B137, 3-((S)-3-((3-(5-((1R,3R)-2-(2-fluoro-2-methylpropyl)-3-methyl-2,3,4,9-tetrahydro-1H-pyrido[3,4-b]indol-1-yl)pyrimidin-2-yl)-3-azaspiro[5.5]undecan-9-yl)methyl)-8-oxo-1,2,3,4,4a,5,8,10-octahydro-9H-pyrazino[1′,2′:4,5][1,4]oxazino[2,3-f]isoindol-9-yl)piperidine-2,6-dione], in experiment [1], the DC50 fell in the range of 10 to 100 nM. In experiment [2] (96 h), the 50% inhibitory concentration (IC50) is more than 10 nM.
With `C[C@@H]1Cc2c([nH]c3ccccc23)[C@@H](c2cnc(N3CCC4(CCC(N5CCN6c7cc8c(cc7OC[C@@H]6C5)C(=O)N(C5CCC(=O)NC5=O)C8)CC4)CC3)nc2)N1CC(F)F` (stereo partly drawn) [Compound B138, 3-((S)-3-(3-(5-((1R,3R)-2-(2,2-difluoroethyl)-3-methyl-2,3,4,9-tetrahydro-1H-pyrido[3,4-b]indol-1-yl)pyrimidin-2-yl)-3-azaspiro[5.5]undecan-9-yl)-8-oxo-1,2,3,4,4a,5,8,10-octahydro-9H-pyrazino[1′,2′:4,5][1,4]oxazino[2,3-f]isoindol-9-yl)piperidine-2,6-dione], in experiment [1], the DC50 was in the range of 10 to 100 nM. Further, the IC50 in experiment [2] (96 h) was 1 to 10 nM.
The like results for `C[C@@H]1Cc2c([nH]c3ccccc23)[C@@H](c2cnc(N3CCC4(CCC(N5CCN6c7cc8c(cc7OC[C@@H]6C5)C(=O)N(C5CCC(=O)NC5=O)C8)CC4)CC3)nc2)N1CC(C)(C)F` (stereo partly drawn) [Compound B139, 3-((S)-3-(3-(5-((1R,3R)-2-(2-fluoro-2-methylpropyl)-3-methyl-2,3,4,9-tetrahydro-1H-pyrido[3,4-b]indol-1-yl)pyrimidin-2-yl)-3-azaspiro[5.5]undecan-9-yl)-8-oxo-1,2,3,4,4a,5,8,10-octahydro-9H-pyrazino[1′,2′:4,5][1,4]oxazino[2,3-f]isoindol-9-yl)piperidine-2,6-dione] were, in that order, less than 10 nM and 1 to 10 nM.
The like results for `COc1cc(N2CCC3(CC2)CC(CN2CCC4(CC2)COc2c4ccc4c2CN(C2CCC(=O)NC2=O)C4=O)C3)ccc1[C@@H]1c2[nH]c3ccccc3c2C[C@@H](C)N1CC(F)F` (stereo partly drawn) [Compound B140, 3-(1′-((7-(4-((1R,3R)-2-(2,2-difluoroethyl)-3-methyl-2,3,4,9-tetrahydro-1H-pyrido[3,4-b]indol-1-yl)-3-methoxyphenyl)-7-azaspiro[3.5]nonan-2-yl)methyl)-6-oxo-6,8-dihydro-2H,7H-spiro[furo[2,3-e]isoindole-3,4′-piperidin]-7-yl)piperidine-2,6-dione] were, in that order, less than 10 nM and less than 1 nM.
The corresponding values for `COc1cc(N2CCC3(CC2)CC(CN2CCN4c5cc6c(cc5OC[C@@H]4C2)C(=O)N(C2CCC(=O)NC2=O)C6)C3)ccc1[C@@H]1c2[nH]c3ccccc3c2C[C@@H](C)N1CC(F)F` (stereo partly drawn) [Compound B141, 3-((S)-3-((7-(4-((1R,3R)-2-(2,2-difluoroethyl)-3-methyl-2,3,4,9-tetrahydro-1H-pyrido[3,4-b]indol-1-yl)-3-methoxyphenyl)-7-azaspiro[3.5]nonan-2-yl)methyl)-8-oxo-1,2,3,4,4a,5,8,10-octahydro-9H-pyrazino[1′,2′:4,5][1,4]oxazino[2,3-f]isoindol-9-yl)piperidine-2,6-dione] are less than 10 nM and 1 to 10 nM.
For the compound `COc1cc(N2CCC3(CC2)CC(CN2CCN4c5cc6c(cc5OC[C@@H]4C2)C(=O)N(C2CCC(=O)NC2=O)C6)CO3)ccc1[C@@H]1c2[nH]c3ccccc3c2C[C@@H](C)N1CC(F)F` (stereo partly drawn) [Compound B142, 3-((4aS)-3-((8-(4-((1R,3R)-2-(2,2-difluoroethyl)-3-methyl-2,3,4,9-tetrahydro-1H-pyrido[3,4-b]indol-1-yl)-3-methoxyphenyl)-1-oxa-8-azaspiro[4.5]decan-3-yl)methyl)-8-oxo-1,2,3,4,4a,5,8,10-octahydro-9H-pyrazino[1′,2′:4,5][1,4]oxazino[2,3-f]isoindol-9-yl)piperidine-2,6-dione], the DC50 in experiment [1] lay in the range of 10 to 100 nM. The concentration for half-maximal inhibition (IC50) in experiment [2] (96 h) is less than 1 nM.
The like results for `COc1cc(N2CCC3(CC2)CC(CN2CCN4c5ccc6c(c5OC[C@H]4C2)CN(C2CCC(=O)NC2=O)C6=O)CO3)ccc1[C@@H]1c2[nH]c3ccccc3c2C[C@@H](C)N1CC(F)F` (stereo partly drawn) [Compound B143, 3-((5aR)-7-((8-(4-((1R,3R)-2-(2,2-difluoroethyl)-3-methyl-2,3,4,9-tetrahydro-1H-pyrido[3,4-b]indol-1-yl)-3-methoxyphenyl)-1-oxa-8-azaspiro[4.5]decan-3-yl)methyl)-1-oxo-1,3,5,5a,6,7,8,9-octahydro-2H-pyrazino[1′,2′:4,5][1,4]oxazino[2,3-e]isoindol-2-yl)piperidine-2,6-dione] were, in that order, less than 10 nM and less than 1 nM.
For the compound `COc1cc(N2CCC3(CC2)CC(CN2CCN4c5ccc6c(c5OC[C@H]4C2)CN(C2CCC(=O)NC2=O)C6=O)CO3)ccc1[C@@H]1c2[nH]c3ccccc3c2C[C@@H](C)N1CC(F)F` (stereo partly drawn) [Compound B144, (3S)-3-((5aR)-7-((8-(4-((1R,3R)-2-(2,2-difluoroethyl)-3-methyl-2,3,4,9-tetrahydro-1H-pyrido[3,4-b]indol-1-yl)-3-methoxyphenyl)-1-oxa-8-azaspiro[4.5]dccan-3-yl)methyl)-1-oxo-1,3,5,5a,6,7,8,9-octahydro-2H-pyrazino[1′,2′:4,5][1,4]oxazino[2,3-e]isoindol-2-yl)piperidine-2,6-dione], the DC50 in experiment [1] was less than 10 nM. Further, the IC50 in experiment [2] is less than 1 nM.
Consider `C[C@@H]1Cc2c([nH]c3ccccc23)[C@@H](c2ccc(N3CCC4(CC3)CC(CN3CCC5(CC3)COc3c5ccc5c3CN(C3CCC(=O)NC3=O)C5=O)CO4)cn2)N1CC(F)(F)F` (stereo partly drawn) [Compound B145, 3-(1′-((8-(6-((1S,3R)-3-methyl-2-(2,2,2-trifluoroethyl)-2,3,4,9-tetrahydro-1H-pyrido[3,4-b]indol-1-yl)pyridin-3-yl)-1-oxa-8-azaspiro[4.5]decan-3-yl)methyl)-6-oxo-6,8-dihydro-2H,7H-spiro[furo[2,3-e]isoindole-3,4′-piperidin]-7-yl)piperidine-2,6-dionc], for which the half-maximal degradation concentration (DC50) in experiment [1] was less than 10 nM. The concentration for half-maximal inhibition (IC50) in experiment [2] (96 h) is less than 1 nM.
The corresponding values for `C[C@@H]1Cc2c([nH]c3ccccc23)[C@@H](c2ccc(N3CCC4(CC3)CC(CN3CCN5c6ccc7c(c6OC[C@H]5C3)CN([C@H]3CCC(=O)NC3=O)C7=O)CO4)cn2)N1CC(F)(F)F` (stereo partly drawn) [Compound B146, (3S)-3-((5aR)-7-((8-(6-((1S,3R)-3-methyl-2-(2,2,2-trifluoroethyl)-2,3,4,9-tetrahydro-1H-pyrido[3,4-b]indol-1-yl)pyridin-3-yl)-1-oxa-8-azaspiro[4.5]decan-3-yl)methyl)-1-oxo-1,3,5,5a,6,7,8,9-octahydro-2H-pyrazino[1′,2′:4,5][1,4]oxazino[2,3-e]isoindol-2-yl)piperidine-2,6-dione] are 10 to 100 nM and 1 to 10 nM.
With `C[C@@H]1Cc2c([nH]c3ccccc23)[C@@H](c2ccc(N3CCC4(CC3)CC(CN3CCN5c6cc7c(cc6OC[C@@H]5C3)C(=O)N(C3CCC(=O)NC3=O)C7)CO4)cn2)N1CC(F)(F)F` (stereo partly drawn) [Compound B147, 3-((4aS)-3-((8-(6-((1S,3R)-3-methyl-2-(2,2,2-trifluoroethyl)-2,3,4,9-tetrahydro-1H-pyrido[3,4-b]indol-1-yl)pyridin-3-yl)-1-oxa-8-azaspiro[4.5]dccan-3-yl)methyl)-8-oxo-1,2,3,4,4a,5,8,10-octahydro-9H-pyrazino[1′,2′:4,5][1,4]oxazino[2,3-f]isoindol-9-yl)piperidine-2,6-dione], the half-maximal degradation concentration (DC50) in experiment [1] is 10 to 100 nM. In addition, in experiment [2] (96 h), the IC50 lay within 1 to 10 nM.
The corresponding values for `C[C@@H]1Cc2c([nH]c3ccccc23)[C@@H](c2c(F)cc(N3CCC(CN4CCN5c6ccc7c(c6OC[C@H]5C4)CN(C4CCC(=O)NC4=O)C7=O)CC3)cc2F)N1CC(F)(F)CO` (stereo partly drawn) [Compound B148, 3-((R)-7-((1-(4-((1R,3R)-2-(2,2-difluoro-3-hydroxypropyl)-3-methyl-2,3,4,9-tetrahydro-1H-pyrido[3,4-b]indol-1-yl)-3,5-difluorophenyl)piperidin-4-yl)methyl)-1-oxo-1,3,5,5a,6,7,8,9-octahydro-2H-pyrazino[1′,2′:4,5][1,4]oxazino[2,3-e]isoindol-2-yl)piperidine-2,6-dione] are more than 100 nM and less than 1 nM.
On to `C[C@@H]1Cc2c([nH]c3ccccc23)[C@@H](c2c(F)cc(N3CC[C@@H](CN4CCN5c6ccc7c(c6OC[C@H]5C4)CN(C4CCC(=O)NC4=O)C7=O)C3)cc2F)N1CC(F)(F)CO` (stereo partly drawn) [Compound B149, 3-((R)-7-(((S)-1-(4-((1R,3R)-2-(2,2-difluoro-3-hydroxypropyl)-3-methyl-2,3,4,9-tetrahydro-1H-pyrido[3,4-b]indol-1-yl)-3,5-difluorophenyl)pyrrolidin-3-yl)methyl)-1-oxo-1,3,5,5a,6,7,8,9-octahydro-2H-pyrazino[1′,2′:4,5][1,4]oxazino[2,3-e]isoindol-2-yl)piperidine-2,6-dione], for which, in experiment [1], the half-maximal degradation concentration (DC50) was more than 100 nM. Further, in experiment [2] (96 h), the half-inhibitory concentration (IC50) fell in the range of 1 to 10 nM.
For `C[C@@H]1Cc2c([nH]c3ccccc23)[C@@H](c2c(F)cc(N3CC[C@H](CN4CCN5c6ccc7c(c6OC[C@H]5C4)CN(C4CCC(=O)NC4=O)C7=O)C3)cc2F)N1CC(F)(F)CO` (stereo partly drawn) [Compound B150, 3-((R)-7-(((R)-1-(4-((1R,3R)-2-(2,2-difluoro-3-hydroxypropyl)-3-methyl-2,3,4,9-tetrahydro-1H-pyrido[3,4-b]indol-1-yl)-3,5-difluorophenyl)pyrrolidin-3-yl)methyl)-1-oxo-1,3,5,5a,6,7,8,9-octahydro-2H-pyrazino[1′,2′:4,5][1,4]oxazino[2,3-e]isoindol-2-yl)piperidine-2,6-dione], the DC50 in experiment [1] lay in the range of 10 to 100 nM. Besides, the IC50 in experiment [2] (96 h) is 1 to 10 nM.
